Results taken from publication PMC7673538 (PLoS Biology, 2020).
“And” between values parts separate entries of the source, which are not always exact repeats. Identical values can stand only once. Like-named read-outs stand apart in the source and are kept apart here.

Assays:
Test in all cases: microbe, parasite or virus in culture
EV-A71 = assay type: cell-based, enterovirus A71
CV-B3 = assay type: cell-based, coxsackievirus B3
PV-1 = assay type: cell-based, poliovirus 1
CV-A24 = assay type: cell-based, coxsackievirus A24; conditions: Enterovirus C, CVA24, HeLa R19, read-out: EC50 CV-A24
CV-A24v = assay type: cell-based, coxsackievirus A24v
EV-D68 = assay type: cell-based, enterovirus D68

## O=C(c1cc[nH]c1)N(Cc1ccc(F)cc1)c1ccccc1 [Compound 12b, N-(4-Fluorobenzyl)-N-phenyl-1H-pyrrole-3-carboxamide]
EV-A71; Concentration 0.0046 µM
  Figure 7 dose-response raw data, EV-A71 (triplicate values): 8.524 and 14.1813 and 13.8349
EV-A71; Concentration 0.0137 µM
  Figure 7 dose-response raw data, EV-A71 (triplicate values): 8.178 and 10.6023 and 11.4104
EV-A71; Concentration 0.0412 µM
  Figure 7 dose-response raw data, EV-A71 (triplicate values): 8.755 and 10.1405 and 13.8349
EV-A71; Concentration 0.1235 µM
  Figure 7 dose-response raw data, EV-A71 (triplicate values): 8.6396 and 9.794 and 10.7177
EV-A71; Concentration 0.3704 µM
  Figure 7 dose-response raw data, EV-A71 (triplicate values): 31.7298 and 16.0285 and 26.5345
EV-A71; Concentration 1.1111 µM
  Figure 7 dose-response raw data, EV-A71 (triplicate values): 89.9407 and 116.561 and 102.065
EV-A71; Concentration 3.3333 µM
  Figure 7 dose-response raw data, EV-A71 (triplicate values): 91.1267 and 117.088 and 97.8476
EV-A71; Concentration 11.1111 µM
  Figure 7 dose-response raw data, EV-A71 (triplicate values): 100.747 and 119.064 and 107.468
EV-A71; Concentration 33.3333 µM
  Figure 7 dose-response raw data, EV-A71 (triplicate values): 107.747 and 119.064 and 117.468
EV-A71; Concentration 100 µM
  Figure 7 dose-response raw data, EV-A71 (triplicate values): 110.747 and 119.064 and 107.468
EV-A71; Enterovirus A, EVA71, HeLa R19, read-out: Table in Figure 7A, EV-A71, AVERAGE
  EC50: 490 nM
CV-B3; Concentration 0.001 µM
  Figure 7 dose-response raw data, CV-B3 (triplicate values): 12.7273 and 16.4436 and 14.7652
CV-B3; Concentration 0.0046 µM
  Figure 7 dose-response raw data, CV-B3 (triplicate values): 88.2521 and 78.519 and 79.7121
CV-B3; Concentration 0.0137 µM
  Figure 7 dose-response raw data, CV-B3 (triplicate values): 101.732 and 101.506 and 105.007
CV-B3; Concentration 0.0412 µM
  Figure 7 dose-response raw data, CV-B3 (triplicate values): 102.861 and 101.167 and 103.426
CV-B3; Concentration 0.1235 µM
  Figure 7 dose-response raw data, CV-B3 (triplicate values): 99.9247 and 100.263 and 102.748
CV-B3; Concentration 0.3704 µM
  Figure 7 dose-response raw data, CV-B3 (triplicate values): 101.957 and 103.877 and 102.635
CV-B3; Concentration 1.1111 µM
  Figure 7 dose-response raw data, CV-B3 (triplicate values): 101.393 and 99.9247 and 103.426
CV-B3; Concentration 3.3333 µM
  Figure 7 dose-response raw data, CV-B3 (triplicate values): 102.974 and 100.151 and 104.555
CV-B3; Concentration 10 µM
  Figure 7 dose-response raw data, CV-B3 (triplicate values): 101.167 and 95.9721 and 104.668
CV-B3; Enterovirus B, CVB3, HeLa R19, read-out: Table in Figure 7A, CV-B3, AVERAGE
  EC50: 2.9 nM
CV-B3; Enterovirus B, CVB3, HeLa R19, read-out: Table in Figure 7A, CV-B3, exp1-exp3
  EC50: 2.98 nM
CV-B3; read-out: Table in Figure 7A, CV-B3, exp1-exp3
  EC50: 3.2 nM and 2.55 nM
PV-1; Concentration 0.0046 µM
  Figure 7 dose-response raw data, PV-1 (triplicate values): 11.045 and 11.5939
PV-1; Concentration 0.0137 µM
  Figure 7 dose-response raw data, PV-1 (triplicate values): 11.045 and 11.5939
PV-1; Concentration 0.0412 µM
  Figure 7 dose-response raw data, PV-1 (triplicate values): 11.045 and 11.8683 and 12.5543
PV-1; Concentration 0.1235 µM
  Figure 7 dose-response raw data, PV-1 (triplicate values): 9.9474 and 11.3195 and 12.0055
PV-1; Concentration 0.3704 µM
  Figure 7 dose-response raw data, PV-1 (triplicate values): 13.3775 and 12.0055 and 11.7311
PV-1; Concentration 1.1111 µM
  Figure 7 dose-response raw data, PV-1 (triplicate values): 20.2378 and 15.8472 and 16.3961
PV-1; Concentration 3.3333 µM
  Figure 7 dose-response raw data, PV-1 (triplicate values): 109.849 and 103.263 and 104.772
PV-1; Concentration 11.1111 µM
  Figure 7 dose-response raw data, PV-1 (triplicate values): 100.535 and 102.561 and 105.184
PV-1; Concentration 33.3333 µM
  Figure 7 dose-response raw data, PV-1 (triplicate values): 94.7887 and 93.7377 and 106.219
PV-1; Concentration 100 µM
  Figure 7 dose-response raw data, PV-1 (triplicate values): 94.2632 and 96.1025 and 105.824
PV-1; Enterovirus C, HeLa R19, read-out: Table in Figure 7A, Polio, AVERAGE
  EC50: 1390 nM
PV-1; Enterovirus C, HeLa R19, read-out: Table in Figure 7A, Polio, exp1-exp3
  EC50: 1760 nM
PV-1; read-out: Table in Figure 7A, Polio, exp1-exp3
  EC50: 1420 nM and 990 nM
CV-A24
  EC50: 1330 ± 240 nM
CV-A24v; Concentration 0.0046 µM
  Figure 7 dose-response raw data, CV-A24v (triplicate values): 11.045 and 11.5939
CV-A24v; Concentration 0.0137 µM
  Figure 7 dose-response raw data, CV-A24v (triplicate values): 14.0988 and 16.3593 and 16.4783
CV-A24v; Concentration 0.0412 µM
  Figure 7 dose-response raw data, CV-A24v (triplicate values): 14.0988 and 16.3593 and 16.4783
CV-A24v; Concentration 0.1235 µM
  Figure 7 dose-response raw data, CV-A24v (triplicate values): 14.8126 and 12.909 and 19.2147
CV-A24v; Concentration 0.3704 µM
  Figure 7 dose-response raw data, CV-A24v (triplicate values): 14.8126 and 13.6228 and 22.1892
CV-A24v; Concentration 1.1111 µM
  Figure 7 dose-response raw data, CV-A24v (triplicate values): 14.8126 and 13.6228 and 22.1892
CV-A24v; Concentration 3.3333 µM
  Figure 7 dose-response raw data, CV-A24v (triplicate values): 106.3 and 102.374 and 110.232
CV-A24v; Concentration 11.1111 µM
  Figure 7 dose-response raw data, CV-A24v (triplicate values): 105.473 and 108.334 and 112.487
CV-A24v; Concentration 33.3333 µM
  Figure 7 dose-response raw data, CV-A24v (triplicate values): 98.3206 and 97.0611 and 97.1756
CV-A24v; Concentration 100 µM
  Figure 7 dose-response raw data, CV-A24v (triplicate values): 82.2926 and 86.3728 and 89.8506
CV-A24v; Coxsackievirus, HeLa R19, read-out: Table in Figure 7A, CVA24v, AVERAGE
  EC50: 1340 nM
CV-A24v; Coxsackievirus, HeLa R19, read-out: Table in Figure 7A, CVA24v, exp1-exp3
  EC50: 1110 nM
CV-A24v; read-out: Table in Figure 7A, CVA24v, exp1-exp3
  EC50: 1230 nM and 1670 nM
EV-D68; Concentration 0.001 µM
  Figure 7 dose-response raw data, EV-D68 (triplicate values): 11.1333 and 12.4782 and 12.9265
EV-D68; Concentration 0.0046 µM
  Figure 7 dose-response raw data, EV-D68 (triplicate values): 12.1793 and 12.9265 and 15.0187
